What was measured:
Assay type in all cases: cell-based, human
VNN1 = VNN1 expression in HepG2 and HepG2-derived MPs (Western blotting, flow cytometry, QPCR); conditions: HepG2 exposed to 0.25 mM FFA
Description: HepG2 were trypsinized and 8×10^5 cells were seeded in a 6-well plate. To knockdown VNN1 or PPARα in hepatocytes, HepG2 were incubated with 50 nM of silencing RNA (siRNA) for VNN1 or PPARα and control siRNA (Ctrl siRNA) dissolved in Lipofectamine 2000 (Life Technologies, Carlsbad, Calif., USA). Transfection was performed according to the manufacturer instructions. After 48 h post transfection, cells were treated with 0.25 mM of palmitic acid for 24 h and microparticles were isolated from the supernatant by ultracentrifugation. The efficiency of transfection has been confirmed in hepatocytes and microparticles by Western blotting as described in the “Protein analysis” paragraph. […] In vivo VNN1 knockdown experiments during experimental NASH were assessed by weekly injection of VNN1 stealthRNA (Life Technology), control siRNA (Ctrl siRNA) or PBS as vehicle (mock) in C57BL/6 mice fed with the MCD diet for 6 weeks. […]
Tissue (liver, intestine, spleen and kidney) from MCD- and MCS-fed mice (Casp-3−/−, WT, treated with VNN1 siRNA and controls) was homogenized using the FastPrep 24 bead homogenization system. […] The concentration and purity of RNA was assessed by NanoDrop (Thermo Scientific). Quantitative Real time PCR was performed on a BioRad Cycler (BioRad) by using SYBRGreen real time PCR master mix (Kapabiosystem, Woburn, Mass., USA) according to the manufacturer instructions. […]

HUVECs [1] = assay: HUVEC migration (Boyden's chamber chemotaxis, wound healing); conditions: supernatants from hepatocytes incubated with FFA up to 24 h; VEGF-A positive control
Description: In vitro migration studies have been performed by using human umbilical cell endothelial cells (HUVECs). Wound healing assay was performed to analyze chemokinesis (non-oriented migration) by using collagen-coated 6-well culture plate, where a silicon elastomer (PDMS) strip was placed vertically to the bottom of every well to create the artificial wound. HUVECs were plated and grown until reaching the complete confluence. HUVECs were treated with EBM-2 supplemented with 100 ng/mL of VEGF (Peprotech, Rocky Hill, N.J., USA), hepatocytes-derived MPs, MP-free supernatant or supernatant collected after 24 hours of treatment with FFAs. The strips were removed carefully and migration of cells was detected by a confocal microscope, capturing one picture per field every 10 minutes for 48 hours. Mitomycin (1 μg/ml) was used to inhibit cell proliferation during wound healing assay. Data were analyzed by using Wimscratch software (Wimasis, Munich, Germany) in order to get the total cell-covered area (pixel). Boyden's chamber assay was performed to analyze chemotaxis (oriented migration) by using cell culture inserts 8 μm pore size (Millipore, Billerica, Mass., USA) and 24-well plate. Each well was filled with 500 μl of serum free EBM-2 media in presence or absence of the following chemoattractants: 100 ng/mL VEGF; hepatocytes-derived MPs; MP-free supernatant or conditioned supernatant. The inserts were placed on top of each well and 150 μl of cell suspension (5×10^4 cells) was added. Plates were incubated overnight at 37° C., and then the filters were removed and stained with Vectashield mounting medium with 4′,6-diamino-2-phenylindole (DAPI) (Vector Labs, Burlingame, Calif., USA).
Migrated cells were detected with a fluorescence microscope and number per field of their nuclei was counted. For the ex vivo studies, PFP isolated from different groups of mice (chow, HF/HCarb, MCD fed mice and mice injected with control siRNA, VNN1 siRNA or PBS as vehicle) were ultracentrifuged at 100,000 g for 1 h at 10° C. to pellet the blood MPs.

HUVECs [2] = assay: HUVEC tube formation assay; conditions: supernatants from HepG2/primary rat hepatocytes incubated with FFA up to 24 h; VEGF-A positive control
Description: HUVECs (0.5-1×10^5 cells per well) were seeded onto a coated 24-well plate culture dishes with 200 μl/cm2 (thick gel method) of Matrigel (BD, Franklin Lakes, N.J., USA) and cultured in EBM-2 basal medium supplemented with 1.1% of streptomycin and penicillin in the presence of 100 ng/mL of VEGF (Peprotech, Rocky Hill, N.J., USA), hepatocytes-derived MPs, MP-free supernatant or conditioned supernatant collected after 24 hours of treatment with FFAs. In selective studies, a specific inhibitor for RhoA-ROCK (Y27632, 10 μM) was used in association with MPs in the treatment of endothelial cells. For the ex vivo studies, PFP isolated from different groups of mice (chow, HF/HCarb, MCD fed mice and mice injected with control RNA, VNN1 siRNA or PBS as vehicle) were ultracentrifuged at 100,000 g for 1 h at 10° C. to pellet the blood MPs. HUVECs were treated with MPs (or blood pure MPs) and incubated for 5 h at 37° C. Tube formation was investigated by using an inverted microscope at 4× magnification and images were captured. Tube formation image analysis was assessed by using Wimtube software (Wimasis, Munich, Germany) and the values referred to total tube length (pixel) were used for statistical and data analysis.

Compound | VNN1 expression in MPs from FFA-treated cells (Western blot) (VNN1) | endothelial cell oriented (chemotaxis) and non-oriented migration induced by cell-free supernatants of FFA-treated hepatocytes (HUVECs [1]) | tube formation induced by cell-free supernatants of FFA-treated hepatocytes (HUVECs [2])
CCCCCCCCCCCCCCCC(=O)O [palmitic acid] | expressed | marked increase | marked increase
CCCCCCCC/C=C\CCCCCCCC(=O)O [oleic acid] | not | not | not
